Here are results for 15 compounds from US6511961B1, “Cyclic peptides and medicinal use thereof” (Toray Industries, Inc., priority 1997, dated 2003).

Read-outs that look alike come from different tables or passages of the source.

The conditions of this series: 20-membered ring.
Where [1] appears, read: disulfide bond, K3[Fe(CN)6]/NH3 pH 7.5-8, water.
Where [2] appears, read: amide bond, with chain assembly.

For the compound `CC(C)C[C@@H]1NC(=O)[C@H](Cc2c[nH]cn2)NC(=O)[C@H](CC(=O)O)NC(=O)[C@@H]2Cc3ccccc3CN2C(=O)[C@@H](N)CSSC[C@@H](C(=O)O)NC1=O` [C*TicDHLC*], the ring closure, yield after HPLC (from H-Cys(Acm)-Tic-Asp-His-Leu-Cys(Acm)-OH, disulfide bond, AgOTf/anisole/TFA, then DMSO/HCl, 50% DMSO-1N HCl, 2 steps) was 30%.

Turning to `CC(C)C[C@@H]1NC(=O)[C@H](Cc2c[nH]cn2)NC(=O)[C@H](CC(=O)O)NC(=O)[C@H](C(C)(C)C)NC(=O)[C@@H](N)CSSC[C@@H](C(=O)O)NC1=O` [C*TleDHLC*], for the setting “from H-Cys(Acm)-Tle-Asp-His-Leu-Cys(Acm)-OH, disulfide bond, AgOTf/anisole/TFA, then DMSO/HCl, 50% DMSO-1N HCl, 2 steps”, the ring closure, yield after HPLC was 69%.

For the compound `CC(C)C[C@@H]1NC(=O)[C@H](Cc2c[nH]cn2)NC(=O)[C@H](CC(=O)O)NC(=O)[C@H](C(C)C)NC(=O)[C@@H](N)CSSC[C@@H](C(=O)O)NC1=O` [C*VDHLC*], the ring closure, yield after HPLC (from H-Cys(Acm)-Val-Asp-His-Leu-Cys(Acm)-OH, disulfide bond, AgOTf/anisole/TFA, then DMSO/HCl, 50% DMSO-1N HCl, 2 steps) turned out to be 75%.

For the setting “from H-Cys(Acm)-dIle-Asp-His-Leu-Cys(Acm)-OH, disulfide bond, AgOTf/anisole/TFA, then DMSO/HCl, 50% DMSO-1N HCl, 2 steps”, `CC[C@@H](C)[C@H]1NC(=O)[C@@H](N)CSSC[C@@H](C(=O)O)NC(=O)[C@H](CC(C)C)NC(=O)[C@H](Cc2c[nH]cn2)NC(=O)[C@H](CC(=O)O)NC1=O` [C*dIDHLC*] came in with a ring closure, yield after HPLC of 72%.

Turning to `CC(C)C[C@@H]1NC(=O)[C@H](CO)NC(=O)[C@H](CC(=O)O)NC(=O)[C@@H](CC(C)C)NC(=O)[C@@H](N)CSSC[C@@H](C(=O)O)NC1=O` [C*dLDSLC*], the ring closure, yield after HPLC (from H-Cys(Acm)-dLeu-Asp-Ser-Leu-Cys(Acm)-OH, disulfide bond, AgOTf/anisole/TFA, then DMSO/HCl, 50% DMSO-1N HCl, 2 steps) came out at 77%.

Turning to `CC(C)C[C@@H]1NC(=O)[C@@H](CO)NC(=O)[C@H](CC(=O)O)NC(=O)[C@@H](CC(C)C)NC(=O)[C@@H](N)CSSC[C@@H](C(=O)O)NC1=O` [C*dLDdSLC*], where the note is “from H-Cys(Acm)-dLeu-Asp-dSer-Leu-Cys(Acm)-OH, disulfide bond, AgOTf/anisole/TFA, then DMSO/HCl, 50% DMSO-1N HCl, 2 steps”, the ring closure, yield after HPLC is 62%.

As to `CC(C)C[C@@H]1NC(=O)[C@H](Cc2c[nH]cn2)NC(=O)[C@H](CC(=O)O)NC(=O)[C@@H](c2ccccc2)NC(=O)[C@@H](N)CSSC[C@@H](C(=O)O)NC1=O` [C*dPhgDHLC*], the ring closure, yield after HPLC (from H-Cys(Acm)-dPhg-Asp-His-Leu-Cys(Acm)-OH, disulfide bond, AgOTf/anisole/TFA, then DMSO/HCl, 50% DMSO-1N HCl, 2 steps) is 55%.

Consider `CC[C@H](C)[C@@H]1NC(=O)CCSSC[C@@H](C(=O)O)NC(=O)[C@H](CC(C)C)NC(=O)[C@H](Cc2c[nH]cn2)NC(=O)[C@H](CC(=O)O)NC1=O` [Mpr*IDHLC*], for which, under “from Mpr(Acm)-Ile-Asp-His-Leu-Cys(Acm)-OH, disulfide bond, AgOTf/anisole/TFA, then DMSO/HCl, 50% DMSO-1N HCl, 2 steps”, the ring closure, yield after HPLC came out at 33%.

For `CC[C@H](C)[C@@H]1NC(=O)[C@@H](N)C(C)(C)SSC[C@@H](C(=O)O)NC(=O)[C@H](CC(C)C)NC(=O)[C@H](Cc2c[nH]cn2)NC(=O)[C@H](CC(=O)O)NC1=O` [Pen*IDHLC*], under “from H-Pen(Acm)-Ile-Asp-His-Leu-Cys(Acm)-OH, disulfide bond, AgOTf/anisole/TFA, then DMSO/HCl, 50% DMSO-1N HCl, 2 steps”, the ring closure, yield after HPLC was found to be 30%.

Take `CC[C@H](C)[C@@H]1NC(=O)[C@H](N)CSSC[C@@H](C(=O)O)NC(=O)[C@H](CC(C)C)NC(=O)[C@H](Cc2c[nH]cn2)NC(=O)[C@H](CC(=O)O)NC1=O` [dC*IDHLC*]: the ring closure, yield after HPLC (from H-dCys(Acm)-Ile-Asp-His-Leu-Cys(Acm)-OH, disulfide bond, AgOTf/anisole/TFA, then DMSO/HCl, 50% DMSO-1N HCl, 2 steps) came out at 39%.

As to C*IDSLC*, the ring closure, yield after HPLC under setting [1] was 62%.

Consider C*IDTLC*, for which the ring closure, yield after HPLC under setting [1] was determined as 70%.

C*IDYLC* yielded a ring closure, yield after HPLC (disulfide bond, K3[Fe(CN)6]/NH3 pH 7.5-8, water, 0.43 mM) of 61%.

Consider D(CO—)ChgMet(O2)PhgLDpr(NH—), for which the ring closure, yield after HPLC under setting [2] was 7%.

Regarding D(CO—)ChgMet(O2)dPhgLDpr(NH—), the ring closure, yield after HPLC under setting [2] was 10%.
